US5089623A, “Certain imidate insecticides” (Imperial Chemical Industries Plc, priority 1990, dated 1992)

Experiments:
Assay type in all cases: in vivo
[1] = system: Maize weevil [Sitophilus Zeamais (Motschulsky)]; experiment: Maize weevil test (MW); conditions: adult weevils, treated corn seeds, 48 hours, percent in solution
Outline: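 Adult weevils (10) were placed with four corn seeds that had been dipped 2-3 s in compound dissolved in 50:50 acetone:water, then dried, and held at about 25° C. Mortality was scored at 48 h. LC50 was taken from dosage-mortality curves and expressed as percent compound in solution, from a 0.01% top concentration.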

[2] = system: Tobacco Budworm [Heliothis virescens (Fabricius)] eggs; experiment: Tobacco budworm egg test (TBW-E); conditions: percent in solution
[3] = system: Housefly [Musca domestica]; experiment: Housefly insecticidal test (HF); conditions: per 25 female houseflies, 48 hours
[4] = system: Cabbage Looper [Trichoplusia ni (Hubner)]; experiment: Cabbage looper test (CL); conditions: second-instar larvae, 3-5 days, percent in solution
[5] = system: Aster Leafhopper [Macrosteles fascifrens (Stal)]; experiment: Aster leafhopper test (LH); conditions: adults/nymphs, 48 hours, percent in solution

SMILES	LC50 MW [1] [%]	LC50 TBW E [2] [%]	LC50 HF [3] [µg]	LC50 CL [4] [%]	LC50 LH [5] [%]
C=C(C)C(=Nc1ccc(Cl)cc1)OCc1cccc(Oc2ccccc2)c1 [Compound 6]	> 0.01	0.015	17	0.02	> 0.05
CCC(=Nc1ccc(Cl)cc1)OCc1cccc(Oc2ccccc2)c1 [Compound 11]	> 0.01	> 0.1	6	0.025	> 0.05
CC(C)C(=Nc1cc(Cl)ccc1Cl)OCc1cccc(Oc2ccccc2)c1 [Compound 13]	> 0.01	> 0.1	> 100	0.014	> 0.05
CC(C)C(=Nc1ccccc1Cl)OCc1cccc(Oc2ccccc2)c1 [Compound 17]	> 0.01	> 0.1	75	0.03	> 0.05
N#CC(=Nc1ccc(Cl)cc1)OCc1cccc(Oc2ccccc2)c1 [Compound 21]	> 0.01	> 0.1	7	0.02	> 0.05
CC(C)(C)C(=Nc1ccc(Cl)c(Cl)c1)OCc1cccc(Oc2ccccc2)c1 [Compound 25]	> 0.01	> 0.1	> 100	0.01	> 0.05
FC(F)(F)C(=Nc1ccc(Cl)cc1)OCc1cccc(Oc2ccccc2)c1 [Compound 35]	> 0.01	0.03	15	0.008	> 0.05
CC(C)C(=Nc1ccccc1)OCc1cccc(Oc2ccccc2)c1 [Compound 43]	> 0.01	0.05	7	0.018	> 0.05
Fc1ccc(N=C(OCc2cccc(Oc3ccccc3)c2)C(F)F)cc1 [Compound 50]	> 0.01	> 0.05	43	0.02	> 0.05
CC(C)C(=Nc1ccccc1C(F)(F)F)OCc1cccc(Oc2ccccc2)c1 [Compound 72]	> 0.01	> 0.1	> 100	0.08	> 0.05
CCS(=O)(=O)c1ccc(N=C(OCc2cccc(Oc3ccccc3)c2)C(C)C)cc1Cl [Compound 112]	> 0.01	> 0.1	> 100	0.025	> 0.05
Fc1ccc(N=C(OCc2cccc(Oc3ccccc3)c2)C(F)(F)C(F)(F)F)cc1Cl [Compound 117]	> 0.01	> 0.1	55	0.006	0.0003
CC(C)C(=Nc1ccc(F)c(Cl)c1)OCc1cccc(Oc2ccccc2F)c1 [Compound 119]	> 0.01	0.048	27	0.0007	0.0008
CC1(C)C(C(=Nc2ccc(F)c(Cl)c2)OCc2cccc(Oc3ccccc3)c2)C1(C)C [Compound 124]	> 0.01	> 0.1	17	0.01	> 0.05
CC(C)C(=Nc1cccc(Br)c1)OCc1cccc(Oc2ccccc2)c1 [Compound 128]	> 0.01	0.037	4.5	0.005	0.003
CC(C)C(=Nc1ccccc1Br)OCc1cccc(Oc2ccccc2)c1 [Compound 132]	> 0.01	> 0.1	65	0.025	> 0.05

SMILES	LC50 MW [1] [%]	LC50 TBW E [2] [%]	LC50 HF [3] [µg]	LC50 CL [4] [%]	LC50 LH [5] [%]
CSc1ccc(N=C(OCc2cccc(Oc3ccccc3)c2)C(C)C)cc1 [Compound 142]	> 0.01	0.1	15	0.005	> 0.05
COc1cccc(N=C(OCc2cccc(Oc3ccccc3)c2)C(C)C)c1 [Compound 143]	> 0.01	< 0.1	10	0.002	0.006
COC(=O)c1ccc(N=C(OCc2cccc(Oc3ccccc3)c2)C(C)C)cc1 [Compound 151]	> 0.01	> 0.1	38	0.009	> 0.05
CC(C)C(=Nc1ccc(C(C)(C)C)cc1)OCc1cccc(Oc2ccccc2)c1 [Compound 153]	> 0.01	0.1	> 100	0.004	0.0005
Cc1cccc(N=C(OCc2cccc(Oc3ccccc3)c2)C(C)C)c1 [Compound 155]	> 0.01	0.06	9	0.004	> 0.05
Cc1ccc(N=C(OCc2cccc(Oc3ccccc3)c2)C(C)C)cc1 [Compound 156]	> 0.01	0.05	10	0.004	> 0.05
COc1ccc(N=C(OCc2cccc(Oc3ccccc3)c2)C(C)C)cc1 [Compound 160]	> 0.01	0.09	7	0.005	0.05
CC(C)C(=Nc1ccc(C#N)cc1)OCc1cccc(Oc2ccccc2)c1 [Compound 172]	> 0.01	0.04	5	0.002	> 0.05
c1ccc(Oc2cccc(COC(=Nc3ccc4c(c3)OCO4)C3CC3)c2)cc1 [Compound 177]	0.01	> 0.1	13	0.002	> 0.05
CCC(=Nc1ccc2c(c1)OCO2)OCc1cccc(Oc2ccccc2)c1 [Compound 178]	> 0.01	> 0.1	6	0.004	> 0.05
CC(C)C(=Nc1ccc(-c2ccccc2)cc1)OCc1cccc(Oc2ccccc2)c1 [Compound 186]	> 0.01	> 0.1	> 100	0.008	> 0.05
CC(C)C(=Nc1ccc(Cl)cc1)OCc1cccc(Oc2ccc(F)cc2)c1 [Compound 189]	> 0.01	0.07	17	0.00027	0.002
CC(C)C(=Nc1ccc(Cl)c(C(F)(F)F)c1)OCc1cccc(Oc2ccc(F)cc2)c1 [Compound 193]	> 0.01	> 0.1	100	0.00075	0.001
CC(C)C(=Nc1ccc(F)c(Cl)c1)OCc1cccc(Oc2ccc(F)c(F)c2)c1 [Compound 217]	0.0084	0.015	8	0.00006	> 0.05
CC(C)C(=Nc1ccc(OC(F)(F)F)cc1)OCc1cccc(Cc2ccccc2)c1 [Compound 538]	> 0.01		75	> 0.1	> 0.05
